Measurements from patent US12403141B2, “Deuterated MK2 pathway inhibitors and methods of using the same” (ACLARIS THERAPEUTICS, INC., priority 2019, dated 2025).
Blank lines part the entries; values can stand above or below the compound they belong to.

Columns and labels:
Assay type in all cases: in vitro ADME
Details in all cases: 10 μM; for UV % at 280-290 nm, Parent-T0 min: T0 min (normalized as 100%)
minipig hepatocytes = test: In vitro metabolite profile in minipig hepatocytes; set-up: key to UV % at 280-290 nm or observed (+ or --), metabolite M532b (Hydroxylation) / UV % at 280-290 nm or observed (+ or --), metabolite M532c (Hydroxylation) / UV % at 280-290 nm or observed (+ or --), metabolite M563 (O-dealkylation + Glucuronidation) / UV % at 280-290 nm or observed (+ or --), metabolite M530b (Hydroxylation) / UV % at 280-290 nm or observed (+ or --), metabolite M530c (Hydroxylation): +: only detected by MS; --: not detected or trace
Description: (§1) Briefly, each test compound (final concentration of 10 μM containing 0.1% DMSO) was incubated with rat, dog, minipig, monkey, or human hepatocytes (final viable cell density of 1×10^6 cells/mL) at 37° C. with 5% CO2 in HI hepatocyte maintenance media (BIOIVT; Catalog #Z99009) for 120 minutes. Reactions were initiated by combining 200 μL of pre-warmed 2× dosing solution containing 20 μM test compound and 0.2% DMSO in HI maintenance media with 200 μL of pre-warmed hepatocyte solution containing 2×10^6 cells/mL in HI maintenance media. Samples were taken at 0 minutes (T0) and 120 minutes (T120) by quenching the reaction with 1200 μL acetonitrile. After quenching, the samples were sonicated for 2 minutes and then centrifuged at 1400 rpm for 5 minutes. A 1400-μL aliquot of the supernatant was evaporated under a stream of N2 until dry. The dried extracts were then reconstituted with 200 μL acetonitrile: H2O (1:3 v/v), vortexed for 2 minutes and centrifuged at 14000 rpm for 5 minutes. A 2-μL aliquot of the supernatant was injected onto a Xevo UPLC-UV-G2-S Q-Tof system (Waters®) with positive-ion electrospray ionization for analysis. Chromatographic separation was achieved on an Acquity UPLC®BEH C18 column (2.1×50 mm, 1.7 μm; Waters®) by gradient elution using varying proportions of mobile phase A (H2O with 0.1% formic acid) and mobile phase B (acetonitrile with 0.1% formic acid) at a constant flow rate of 400 μL/minute over a total run time of 10 minutes. LC-UV-MS extract ion chromatograms (EIC) of the T120 samples were compared to the T0 samples to identify the major putative metabolites which were named as Mm/z.

dog hepatocytes = test: In vitro metabolite profile in dog hepatocytes; set-up: key to UV % at 280-290 nm or observed (+ or --), metabolite M387 (O-dealkylation) / UV % at 280-290 nm or observed (+ or --), metabolite M532b (Hydroxylation) / UV % at 280-290 nm or observed (+ or --), metabolite M532c (Hydroxylation) / UV % at 280-290 nm or observed (+ or --), metabolite M532d (Hydroxylation) / UV % at 280-290 nm or observed (+ or --), metabolite M532e (Hydroxylation) / UV % at 280-290 nm or observed (+ or --), metabolite M563 (O-dealkylation + Glucuronidation) / UV % at 280-290 nm or observed (+ or --), metabolite M530b (Hydroxylation) / UV % at 280-290 nm or observed (+ or --), metabolite M530c (Hydroxylation) / UV % at 280-290 nm or observed (+ or --), metabolite M530d (Hydroxylation) / UV % at 280-290 nm or observed (+ or --), metabolite M530e (Hydroxylation): +: only detected by MS; --: not detected or trace
Description: as §1

human hepatocytes = test: In vitro metabolite profile in human hepatocytes; set-up: key to UV % at 280-290 nm or observed (+ or --), metabolite M387 (O-dealkylation) / UV % at 280-290 nm or observed (+ or --), metabolite M532b (Hydroxylation) / UV % at 280-290 nm or observed (+ or --), metabolite M532e (Hydroxylation) / UV % at 280-290 nm or observed (+ or --), metabolite M563 (O-dealkylation + Glucuronidation) / UV % at 280-290 nm or observed (+ or --), metabolite M530b (Hydroxylation) / UV % at 280-290 nm or observed (+ or --), metabolite M530e (Hydroxylation): +: only detected by MS; --: not detected or trace
Description: as §1

[1] = 120 min, relative to parent at T0

UV % at 280-290 nm or observed (+ or --), metabolite M532b (Hydroxylation) (minipig hepatocytes; [1]): + | UV % at 280-290 nm or observed (+ or --), metabolite M532c (Hydroxylation) (minipig hepatocytes; [1]): + | UV % at 280-290 nm, Parent-T120 min (minipig hepatocytes; [1]): 81.1% | UV % at 280-290 nm, Parent-T0 min (minipig hepatocytes): 100.0% | UV % at 280-290 nm or observed (+ or --), metabolite M387 (O-dealkylation) (dog hepatocytes; [1]): + | UV % at 280-290 nm or observed (+ or --), metabolite M532b (Hydroxylation) (dog hepatocytes; [1]): -- | UV % at 280-290 nm or observed (+ or --), metabolite M532c (Hydroxylation) (dog hepatocytes; [1]): + | UV % at 280-290 nm or observed (+ or --), metabolite M532e (Hydroxylation) (dog hepatocytes; [1]): + | UV % at 280-290 nm or observed (+ or --), metabolite M532d (Hydroxylation) (dog hepatocytes; [1]): -- | UV % at 280-290 nm, Parent-T120 min (dog hepatocytes; [1]): 96.0% | UV % at 280-290 nm, Parent-T0 min (dog hepatocytes): 100.0% | UV % at 280-290 nm or observed (+ or --), metabolite M387 (O-dealkylation) (human hepatocytes; [1]): + | UV % at 280-290 nm or observed (+ or --), metabolite M532b (Hydroxylation) (human hepatocytes; [1]): + | UV % at 280-290 nm or observed (+ or --), metabolite M532e (Hydroxylation) (human hepatocytes; [1]): + | UV % at 280-290 nm, Parent-T120 min (human hepatocytes; [1]): 88.2% | UV % at 280-290 nm, Parent-T0 min (human hepatocytes): 100.0%
Compound: [2H]C([2H])(Oc1cc(C)n(-c2cc(-c3ccnc(C(C)(C)O)n3)ncc2C)c(=O)c1Cl)c1ncc(F)cc1F (single isomer, unassigned) [Example 1-D2, (P)-3-Chloro-4-((3,5-difluoropyridin-2-yl)methoxy-d2)-2′-(2-(2-hydroxypropan-2-yl)pyrimidin-4-yl)-5′,6-dimethyl-2H-[1,4′-bipyridin]-2-one]

UV % at 280-290 nm or observed (+ or --), metabolite M387 (O-dealkylation) (minipig hepatocytes; [1]): 14.4% | UV % at 280-290 nm or observed (+ or --), metabolite M530b (Hydroxylation) (minipig hepatocytes; [1]): -- | UV % at 280-290 nm or observed (+ or --), metabolite M530c (Hydroxylation) (minipig hepatocytes; [1]): + | UV % at 280-290 nm or observed (+ or --), metabolite M530e (Hydroxylation) (minipig hepatocytes; [1]): 2.4% | UV % at 280-290 nm or observed (+ or --), metabolite M563 (O-dealkylation + Glucuronidation) (minipig hepatocytes; [1]): + | UV % at 280-290 nm or observed (+ or --), metabolite M530d (Hydroxylation) (minipig hepatocytes; [1]): 1.6% | UV % at 280-290 nm, Parent-T120 min (minipig hepatocytes; [1]): 70.0% | UV % at 280-290 nm, Parent-T0 min (minipig hepatocytes): 100.0% | UV % at 280-290 nm or observed (+ or --), metabolite M387 (O-dealkylation) (dog hepatocytes; [1]): 4.1% | UV % at 280-290 nm or observed (+ or --), metabolite M530b (Hydroxylation) (dog hepatocytes; [1]): -- | UV % at 280-290 nm or observed (+ or --), metabolite M530c (Hydroxylation) (dog hepatocytes; [1]): + | UV % at 280-290 nm or observed (+ or --), metabolite M530e (Hydroxylation) (dog hepatocytes; [1]): + | UV % at 280-290 nm or observed (+ or --), metabolite M563 (O-dealkylation + Glucuronidation) (dog hepatocytes; [1]): + | UV % at 280-290 nm or observed (+ or --), metabolite M530d (Hydroxylation) (dog hepatocytes; [1]): -- | UV % at 280-290 nm, Parent-T120 min (dog hepatocytes; [1]): 87.0% | UV % at 280-290 nm, Parent-T0 min (dog hepatocytes): 100.0% | UV % at 280-290 nm or observed (+ or --), metabolite M387 (O-dealkylation) (human hepatocytes; [1]): 3.5% | UV % at 280-290 nm or observed (+ or --), metabolite M530b (Hydroxylation) (human hepatocytes; [1]): + | UV % at 280-290 nm or observed (+ or --), metabolite M530c (Hydroxylation) (human hepatocytes; [1]): 1.3% | UV % at 280-290 nm or observed (+ or --), metabolite M530e (Hydroxylation) (human hepatocytes; [1]): + | UV % at 280-290 nm or observed (+ or --), metabolite M563 (O-dealkylation + Glucuronidation) (human hepatocytes; [1]): -- | UV % at 280-290 nm or observed (+ or --), metabolite M530d (Hydroxylation) (human hepatocytes; [1]): 1.5% | UV % at 280-290 nm, Parent-T120 min (human hepatocytes; [1]): 84.8% | UV % at 280-290 nm, Parent-T0 min (human hepatocytes): 100.0%
Compound: Cc1cnc(-c2ccnc(C(C)(C)O)n2)cc1-n1c(C)cc(OCc2ncc(F)cc2F)c(Cl)c1=O (atropisomer, axis not shown; (P)) [Example 1-H2, (P)-3-chloro-4-((3,5-difluoropyridin-2-yl)methoxy)-2′-(2-(2-hydroxypropan-2-yl)pyrimidin-4-yl)-5′,6-dimethyl-2H-[1,4′-bipyridin]-2-one]
